Experimental data published in PubChem BioAssay (NCI).
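Step 1: Grow cells in 96-well plates. Step 2: Expose to compound for 48 hours at 5 concentrations. Step 3: Interpolate endpoints linearly; if unreached, use highest concentration. GI50 marks 50% less growth. At the TGI there is no net growth.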

Assays:
Test in all cases: DTP human tumour cell line panel, 48 h
SF-539 CNS = test system: SF-539 CNS
HCT-15 colon = test system: HCT-15 colon
CCRF-CEM leukemia = test system: CCRF-CEM leukemia
OVCAR-3 ovarian = test system: OVCAR-3 ovarian
LOX IMVI melanoma = test system: LOX IMVI melanoma
SK-MEL-5 melanoma = test system: SK-MEL-5 melanoma
UACC-62 melanoma = test system: UACC-62 melanoma
SK-MEL-28 melanoma = test system: SK-MEL-28 melanoma
HOP-62 NSCLC = test system: HOP-62 NSCLC
UO-31 renal = test system: UO-31 renal
RXF 393 renal = test system: RXF 393 renal
SF-295 CNS = test system: SF-295 CNS
T-47D breast = test system: T-47D breast
MDA-MB-435 = test system: MDA-MB-435
MALME-3M melanoma = test system: MALME-3M melanoma
HS 578T breast = test system: HS 578T breast
UACC-257 melanoma = test system: UACC-257 melanoma
SN12C renal = test system: SN12C renal
SK-MEL-2 melanoma = test system: SK-MEL-2 melanoma
NCI-H460 lung = test system: NCI-H460 lung
EKVX NSCLC = test system: EKVX NSCLC
COLO 205 colon = test system: COLO 205 colon
NCI-H23 lung = test system: NCI-H23 lung
SNB-19 CNS = test system: SNB-19 CNS
MCF7 breast = test system: MCF7 breast
OVCAR-8 ovarian = test system: OVCAR-8 ovarian
NCI-H522 lung = test system: NCI-H522 lung
TK-10 renal = test system: TK-10 renal
HT29 colon = test system: HT29 colon
IGROV1 ovarian = test system: IGROV1 ovarian
BT-549 breast = test system: BT-549 breast
HCC-2998 colon = test system: HCC-2998 colon
DU-145 prostate = test system: DU-145 prostate
SK-OV-3 ovarian = test system: SK-OV-3 ovarian
HCT-116 colon = test system: HCT-116 colon
PC-3 prostate = test system: PC-3 prostate
MOLT-4 leukemia = test system: MOLT-4 leukemia
SF-268 CNS = test system: SF-268 CNS
OVCAR-4 ovarian = test system: OVCAR-4 ovarian
RPMI-8226 leukemia = test system: RPMI-8226 leukemia
NCI/ADR-RES ovarian = test system: NCI/ADR-RES ovarian
MDA-MB-231 breast = test system: MDA-MB-231 breast
HOP-92 NSCLC = test system: HOP-92 NSCLC
NCI-H226 lung = test system: NCI-H226 lung
K-562 leukemia = test system: K-562 leukemia
SW-620 colon = test system: SW-620 colon
SNB-75 CNS = test system: SNB-75 CNS
KM12 colon = test system: KM12 colon
CAKI-1 renal = test system: CAKI-1 renal
ACHN renal = test system: ACHN renal
786-0 renal = test system: 786-0 renal
SR leukemia = test system: SR leukemia
HL-60(TB) leukemia = test system: HL-60(TB) leukemia
A549 NSCLC = test system: A549 NSCLC
OVCAR-5 ovarian = test system: OVCAR-5 ovarian
A498 renal = test system: A498 renal
M14 melanoma = test system: M14 melanoma
U251 CNS = test system: U251 CNS

## CCCC(=O)OCC1OC(n2cnc3c(=S)nc(N)[nH]c32)C(OC(=O)CCC)C1OC(=O)CCC (stereo unspecified)
SF-539 CNS
  GI50: 2.6 µM
  TGI: 18.4 µM
HCT-15 colon
  GI50: 7.6 µM
  TGI: > 100 µM
CCRF-CEM leukemia
  GI50: 2.26 µM
  TGI: > 27.6 µM
OVCAR-3 ovarian
  GI50: 2.08 µM
  TGI: 6.19 µM
LOX IMVI melanoma
  GI50: 0.574 µM
  TGI: > 37 µM
SK-MEL-5 melanoma
  GI50: 6.43 µM
  TGI: 19.5 µM
UACC-62 melanoma
  GI50: 2.81 µM
  TGI: 16 µM
SK-MEL-28 melanoma
  GI50: 23.6 µM
  TGI: 98 µM
HOP-62 NSCLC
  GI50: 2.05 µM
  TGI: 15 µM
UO-31 renal
  GI50: 3.99 µM
  TGI: > 95.5 µM
RXF 393 renal
  GI50: 4.89 µM
  TGI: 24.2 µM
SF-295 CNS
  GI50: 0.906 µM
  TGI: > 25 µM
T-47D breast
  GI50: 3.37 µM
  TGI: 23 µM
MDA-MB-435
  GI50: 3.41 µM
  TGI: 46.9 µM
MALME-3M melanoma
  GI50: 1.66 µM
  TGI: 36.5 µM
HS 578T breast
  GI50: 12.5 µM
  TGI: > 95.7 µM
UACC-257 melanoma
  GI50: 8.61 µM
  TGI: > 100 µM
SN12C renal
  GI50: 3.81 µM
  TGI: > 100 µM
SK-MEL-2 melanoma
  GI50: 3.61 µM
  TGI: > 44.5 µM
NCI-H460 lung
  GI50: 3.85 µM
  TGI: 19.3 µM
EKVX NSCLC
  GI50: 5.36 µM
  TGI: > 100 µM
COLO 205 colon
  GI50: 4.73 µM
  TGI: 14.6 µM
NCI-H23 lung
  GI50: 4.01 µM
  TGI: 33 µM
SNB-19 CNS
  GI50: 27 µM
  TGI: > 100 µM
MCF7 breast
  GI50: 2.79 µM
  TGI: 23.4 µM
OVCAR-8 ovarian
  GI50: 4.72 µM
  TGI: > 100 µM
NCI-H522 lung
  GI50: 2.58 µM
  TGI: 14.2 µM
TK-10 renal
  GI50: 1.91 µM
  TGI: 16.4 µM
HT29 colon
  GI50: 5.63 µM
  TGI: 39.9 µM
IGROV1 ovarian
  GI50: 5.93 µM
  TGI: 45.8 µM
BT-549 breast
  GI50: 2.55 µM
  TGI: 29.3 µM
HCC-2998 colon
  GI50: 2.52 µM
  TGI: 23.6 µM
DU-145 prostate
  GI50: 2.54 µM
  TGI: 51.3 µM
SK-OV-3 ovarian
  GI50: 1.56 µM
  TGI: 9.94 µM
HCT-116 colon
  GI50: 2.72 µM
  TGI: 19.8 µM
PC-3 prostate
  GI50: 3.42 µM
  TGI: > 100 µM
MOLT-4 leukemia
  GI50: 3.93 µM
  TGI: > 85.3 µM
SF-268 CNS
  GI50: 4.1 µM
  TGI: > 100 µM
OVCAR-4 ovarian
  GI50: 2.73 µM
  TGI: 35.8 µM
RPMI-8226 leukemia
  GI50: 3.97 µM
  TGI: 57.6 µM
NCI/ADR-RES ovarian
  GI50: 5.41 µM
  TGI: > 100 µM
MDA-MB-231 breast
  GI50: 4.42 µM
  TGI: > 100 µM
HOP-92 NSCLC
  GI50: 1.4 µM
  TGI: > 48.3 µM
NCI-H226 lung
  GI50: 5.47 µM
  TGI: > 100 µM
K-562 leukemia
  GI50: 3.92 µM
  TGI: > 100 µM
SW-620 colon
  GI50: 5.68 µM
  TGI: > 77.7 µM
SNB-75 CNS
  GI50: 1.26 µM
  TGI: 12.2 µM
KM12 colon
  GI50: 3.76 µM
  TGI: 22 µM
CAKI-1 renal
  GI50: 2.4 µM
  TGI: > 47.5 µM
ACHN renal
  GI50: 4.96 µM
  TGI: > 68 µM
786-0 renal
  GI50: 2.92 µM
  TGI: 14.7 µM
SR leukemia
  GI50: 1.03 µM
  TGI: 36.3 µM
HL-60(TB) leukemia
  GI50: 5.27 µM
  TGI: > 57.6 µM
A549 NSCLC
  GI50: 25.2 µM
  TGI: > 100 µM
OVCAR-5 ovarian
  GI50: 3.06 µM
  TGI: > 85.5 µM
A498 renal
  GI50: 2.98 µM
  TGI: > 35.9 µM
M14 melanoma
  GI50: 1.75 µM
  TGI: 9.32 µM
U251 CNS
  GI50: 13.3 µM
  TGI: > 100 µM
